Test system: AGA1 T cell receptor
Assay: Selection of yeast-displayed HLA-B5703 peptide library with AGA1 TCR, deep sequencing read counts
Format: binding
Conditions: for number of times the peptide was represented, Rd1: after round 1 of selection with AGA1 TCR; for number of times the peptide was represented, Rd2: after round 2 of selection with AGA1 TCR; for number of times the peptide was represented, Rd3: after round 3 of selection with AGA1 TCR; for number of times the peptide was represented, Rd4: after round 4 of selection with AGA1 TCR; for number of times the peptide was represented, Naïve: naïve library before selection
Experimental: Selection of pMHC libraries To maximize sensitivity of selections, all described selection steps were conducted at 4° using cold buffers, and refrigerated centrifuges. All spins were 5,000×g for 1 minute. Before each round of selection, a small sample of yeast (˜1×10^6 cells) were stained with an anti-epitope tag antibody. For the first round of selection, ˜2×10^9 yeast were washed once with PBS+0.5% BSA and 1 mM EDTA (PBE buffer) and then cleared with unloaded Streptavidin Microbeads (250 uL beads in 5 mL PBE) (Miltenyi, 130-048-101) to eliminate any nonspecifically binding yeast clones by incubating 1 hr at 4° with gentle rotation. The yeast were then spun down, resuspended in 5 mL PBE without a wash, and passed through a Miltenyi LS column. […] TCR-binding yeast were then selected via an LS column, washed in SDCAA, and then re-cultured in SDCAA, pH 4.5 at 30° C. overnight. Yeast were re-induced upon reaching OD>2. For each round of selection, at least 10-fold more yeast was used than recovered from the previous round to ensure complete coverage of all selected yeast. Second and third rounds of selection were conducted in the same manner, but with reduced volumes (50 µL of beads in 500 LL PBE). Progress of selections was monitored by counting of cells selected to TCR-bound streptavidin beads as compared to streptavidin beads alone via an Accuri C6 flow cytometer. […] For the final round of selection (conducted when the yeast count enriched by TCR loaded beads was higher than background, usually after 3 rounds), the libraries were stained with 500 nM streptavidin-TCR tetramer as described above, washed 3× with PBE, then incubated with 50 uL anti-Alexa647 Microbeads (Miltenyi, 130-091-395) in 450 µL PBE for 20 minutes. The yeast were washed a final time and passed through a Miltenyi LS column. Enriched yeast were then plated on SDCAA plates for characterization of individual colonies. Individual yeast clones were then screened for tetramer staining as described above. Plasmids containing the selected pMHC were isolated from positive clones via yeast miniprep (Zymoprep II kit, Zymo Research) and sequenced (Sequetech).
Deep sequencing of selection libraries. Pooled plasmids from 5×10^7 yeast from each round of selection were isolated via yeast miniprep (Zymoprep II kit, Zymo Research) and used as PCR template to prepare Illumina samples. Amplicon libraries were designed as follows: (Illumina P5-Truseq read 1-(N8)-Barcode-pMHC-(N8)-Truseq read 2-IlluminaP7). N8 was added immediately after both sequencing primers to generate diversity for low complexity sequencing reads. The adapter and barcode sequences were appended via nested 25-round cycles of PCR of the purified plasmids using Phusion polymerase (NEB). Primers were proximal to the peptide on the pMHC, annealing to the Aga2p leader sequence (5′ end) and MHC β1 domain (3′ end) to ensure high quality sequence reads of the peptide with double coverage. Final PCR products were run on a high percentage agarose gel and purified via gel extraction. PCR products were then quantitated via nanodrop, normalized for each barcoded round of selection to be equally represented, doped with 5-50% PhiX DNA to ensure sufficient sequence diversity for high quality sequence reads, and run on an Illumina MiSeq with 2×150 nt Paired End reads. The initial deep sequencing run, for the 2B4-I-E^k selections, was conducted with 1×150 nt Single End reads. When the sequencing data was analyzed as described below, we saw no significant difference in data quality between single and paired-end reads (as judged by comparing the results for 226/5cc7 when analyzed as single reads vs. paired-end reads). Deep sequencing was conducted at the Stanford Stem Cell Institute Genome Center.
The library was expressed and screened as described above in Example 1, with the AGA1 T cell receptor.
The top 20 peptides after round 3 has the sequences shown below in Table 3. […]

Sequence	number of times the peptide was represented, Rd1	number of times the peptide was represented, Rd2	number of times the peptide was represented, Rd3	number of times the peptide was represented, Rd4	number of times the peptide was represented, Naïve
ASFRPELAEFW [HLA-B5703 library peptide selected with AGA1 TCR]	11	14699	24829	42208	1
ASFSPELRMAW [HLA-B5703 library peptide selected with AGA1 TCR]	10	9925	47218	31919	0
GSLAPEIRMYW [HLA-B5703 library peptide selected with AGA1 TCR]	11	3108	23178	10848	9
GTIRPEIREMW [HLA-B5703 library peptide selected with AGA1 TCR]	37	36754	226381	113394	5
KSCTPEVREYF [HLA-B5703 library peptide selected with AGA1 TCR]	17	15114	94896	49796	0
KSFVPELKPAF [HLA-B5703 library peptide selected with AGA1 TCR]	36	37327	157329	120443	2
KSLAPEVRDLF [HLA-B5703 library peptide selected with AGA1 TCR]	8	6502	34865	22054	0
KSLTPEVRGYW [HLA-B5703 library peptide selected with AGA1 TCR]	15	13273	30634	38231	1
LSLRPEIPLFF [HLA-B5703 library peptide selected with AGA1 TCR]	74	63749	183724	189891	5
NSFRPEVAMKY [HLA-B5703 library peptide selected with AGA1 TCR]	7	6013	31331	19786	6
NSLKPEIPDYF [HLA-B5703 library peptide selected with AGA1 TCR]	47	48656	268475	171826	11
NSVKPEIRPVW [HLA-B5703 library peptide selected with AGA1 TCR]	10	10086	33679	32818	6
RSFVPEIGMGF [HLA-B5703 library peptide selected with AGA1 TCR]	18	20370	22329	65722	8
RSFYPEIREYW [HLA-B5703 library peptide selected with AGA1 TCR]	19	14782	119258	48648	7
SALRPEIRLLW [HLA-B5703 library peptide selected with AGA1 TCR]	50	28840	21235	70740	1
SSFSPELRMRW [HLA-B5703 library peptide selected with AGA1 TCR]	10	14335	98338	48729	3
SSGVPEVRMMF [HLA-B5703 library peptide selected with AGA1 TCR]	38	40422	215079	125041	6
WTYRPEVRGVW [HLA-B5703 library peptide selected with AGA1 TCR]	21	30482	128915	91015	4
YSFKPELKEIF [HLA-B5703 library peptide selected with AGA1 TCR]	5	5648	28641	20312	0

Source: patent publication US11846639B2, “Ligand discovery for T cell receptors” (priority 2014, dated 2023)
